Results published in ChEMBL document CHEMBL4665674, “Medicinal Chemistry Strategies for the Development of Kinase Inhibitors Targeting Point Mutations” (J Med Chem, 2020).
Each block holds one compound with its values, some of them ahead of it.

Columns and labels:
cells = conditions: Homo sapiens, HN11, 72 h
[1] = molecular target: T1, Protein cereblon/Tyrosine-protein kinase BTK (Homo sapiens, UniProt Q06187+Q96SW2); assay: Induction of CRBN-mediated degradation of wild type BTK (unknown origin) expressed in B cells derived from X-linked agammaglobulinemia patient by immunoblot analysis; assay type: cell-based; conditions: b-cell
[2] = molecular target: T2, Protein cereblon/Tyrosine-protein kinase BTK (Homo sapiens, UniProt Q06187+Q96SW2, C481S); assay: Induction of CRBN-mediated degradation of BTK C481S mutant (unknown origin) expressed in B cells derived from X-linked agammaglobulinemia patient by immunoblot analysis; assay type: cell-based; conditions: b-cell
[3] = molecular target: T3, Tyrosine-protein kinase BTK (Homo sapiens, UniProt Q06187); assay: Inhibition of BTK (unknown origin)
[4] = Induction of CRBN-mediated degradation of human BTK C481A mutant expressed in human HeLa cells incubated for 4 days by Western blot analysis; assay type: cell-based; conditions: 96 h
[5] = molecular target: T2, Protein cereblon/Tyrosine-protein kinase BTK; assay: Induction of CRBN-mediated degradation of human BTK C481S mutant expressed in human HeLa cells incubated for 4 days by Western blot analysis; assay type: cell-based
[6] = Induction of CRBN-mediated degradation of human BTK C481G mutant expressed in human HeLa cells incubated for 4 days by Western blot analysis; assay type: cell-based; conditions: 96 h
[7] = Induction of CRBN-mediated degradation of human BTK C481T mutant expressed in human HeLa cells incubated for 4 days by Western blot analysis; assay type: cell-based; conditions: 96 h
[8] = molecular target: T1, Protein cereblon/Tyrosine-protein kinase BTK; assay: Induction of CRBN-mediated degradation of wild type human BTK expressed in human HeLa cells incubated for 4 days by Western blot analysis; assay type: cell-based
[9] = Induction of CRBN-mediated degradation of human BTK C481W mutant expressed in human HeLa cells incubated for 4 days by Western blot analysis; assay type: cell-based; conditions: 96 h
NCI-H1975 = assay: cells; conditions: Homo sapiens
LoVo = assay: cells; assay type: functional, cell-based; conditions: Homo sapiens
[10] = Antiproliferative activity against human MGH021-4 cells harboring ALK G1269A mutant after 72 hrs by CellTiter-Glo assay; assay type: functional; conditions: MGH0214
[11] = Antiproliferative activity against human NCI-H3122-CR1 cells harboring ALK L1196M mutant after 72 hrs by CellTiter-Glo assay; assay type: functional
[12] = Inhibition of CD74-ROS1 G2032R mutant (unknown origin) expressed in mouse Ba/F3 cells assessed as antiproliferative activity incubated for 72 hrs by CellTiter-Glo luciferase-based ATP detection assay; assay type: cell-based; conditions: BaF3, 72 h
[13] = Inhibition of LMNA-TRKA G595R (unknown origin) expressed in mouse Ba/F3 cells assessed as antiproliferative activity incubated for 72 hrs by CellTiter-Glo luciferase-based ATP detection assay; assay type: cell-based; conditions: BaF3, 72 h
[14] = molecular target: T3, Tyrosine-protein kinase BTK; assay: Inhibition of wild type BTK (unknown origin)

T3 sequence (Q06187 whole entry): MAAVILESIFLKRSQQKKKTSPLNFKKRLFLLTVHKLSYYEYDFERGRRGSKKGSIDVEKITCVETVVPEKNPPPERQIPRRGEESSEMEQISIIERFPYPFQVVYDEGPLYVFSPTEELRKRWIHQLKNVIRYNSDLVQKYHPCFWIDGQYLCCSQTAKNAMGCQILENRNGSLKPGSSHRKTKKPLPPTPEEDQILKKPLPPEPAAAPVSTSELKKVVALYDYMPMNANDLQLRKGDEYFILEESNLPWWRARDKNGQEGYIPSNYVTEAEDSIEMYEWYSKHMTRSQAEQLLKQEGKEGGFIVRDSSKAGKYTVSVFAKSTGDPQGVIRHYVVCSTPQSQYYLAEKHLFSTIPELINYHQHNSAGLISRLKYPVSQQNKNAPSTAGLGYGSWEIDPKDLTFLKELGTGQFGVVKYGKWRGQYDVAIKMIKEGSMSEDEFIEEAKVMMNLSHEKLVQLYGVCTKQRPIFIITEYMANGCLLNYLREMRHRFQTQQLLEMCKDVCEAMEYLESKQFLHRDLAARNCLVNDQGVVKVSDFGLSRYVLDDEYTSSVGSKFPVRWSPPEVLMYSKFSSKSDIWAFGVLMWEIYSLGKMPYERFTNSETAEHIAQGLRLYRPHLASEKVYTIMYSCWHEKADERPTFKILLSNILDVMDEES
T1 sequence (Q06187 whole entry): as above
T1 sequence (Q96SW2 whole entry): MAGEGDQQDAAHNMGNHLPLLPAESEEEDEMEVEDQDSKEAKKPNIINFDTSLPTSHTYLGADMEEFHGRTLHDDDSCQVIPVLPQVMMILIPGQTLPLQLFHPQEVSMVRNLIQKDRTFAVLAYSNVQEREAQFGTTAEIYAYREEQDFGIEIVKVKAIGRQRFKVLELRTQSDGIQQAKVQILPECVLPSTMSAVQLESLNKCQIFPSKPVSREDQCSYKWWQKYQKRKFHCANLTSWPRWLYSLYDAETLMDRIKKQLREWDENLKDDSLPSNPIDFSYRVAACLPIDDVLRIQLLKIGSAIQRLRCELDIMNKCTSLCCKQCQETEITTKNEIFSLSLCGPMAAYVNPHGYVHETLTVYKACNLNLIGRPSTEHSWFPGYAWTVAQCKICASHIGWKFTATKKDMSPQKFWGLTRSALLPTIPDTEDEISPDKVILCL
T2 sequence (Q06187 2-659 C481S limits assumed, stated change not applied): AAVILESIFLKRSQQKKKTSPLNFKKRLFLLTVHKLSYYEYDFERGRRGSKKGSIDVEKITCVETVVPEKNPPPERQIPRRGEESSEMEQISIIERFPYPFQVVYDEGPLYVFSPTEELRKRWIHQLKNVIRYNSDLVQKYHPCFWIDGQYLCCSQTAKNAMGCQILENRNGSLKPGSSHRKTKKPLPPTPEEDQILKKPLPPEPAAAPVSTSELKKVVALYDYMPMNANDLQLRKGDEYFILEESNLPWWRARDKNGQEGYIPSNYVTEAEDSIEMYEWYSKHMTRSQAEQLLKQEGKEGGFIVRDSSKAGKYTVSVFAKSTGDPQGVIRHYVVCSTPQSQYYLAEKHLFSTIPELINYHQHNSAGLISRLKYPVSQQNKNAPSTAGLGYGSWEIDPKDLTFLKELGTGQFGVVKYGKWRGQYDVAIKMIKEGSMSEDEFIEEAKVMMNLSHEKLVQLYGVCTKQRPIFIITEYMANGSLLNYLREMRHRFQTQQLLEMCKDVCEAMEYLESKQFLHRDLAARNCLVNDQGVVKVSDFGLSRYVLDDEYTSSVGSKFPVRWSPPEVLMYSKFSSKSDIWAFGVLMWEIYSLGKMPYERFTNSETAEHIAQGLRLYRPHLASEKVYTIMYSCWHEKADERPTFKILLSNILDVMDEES
T2 sequence (Q96SW2 whole entry, stated change not applied): as the sequence (Q96SW2 whole entry) above

Structure (SMILES): CN(C)C/C=C/C(=O)Nc1cc2c(Nc3ccc(F)c(Cl)c3)ncnc2cc1O[C@H]1CCOC1 [AFATINIB]
IC50 (NCI-H1975): 22 nM | IC50 (LoVo): 15 nM

Structure (SMILES): Cc1cc(Nc2ncc(Cl)c(Nc3ccccc3S(=O)(=O)C(C)C)n2)c(OC(C)C)cc1C1CCNCC1 [CERITINIB]
GI50 [10]: 80 nM | GI50 [11]: 230 nM

Structure (SMILES): C[C@@H](Oc1cc(-c2cnn(C3CCNCC3)c2)cnc1N)c1c(Cl)ccc(F)c1Cl [CRIZOTINIB]
GI50 [10]: 500 nM | GI50 [11]: 2880 nM

Structure (SMILES): C[C@H]1CNC(=O)c2cnn3ccc(nc23)N[C@H](C)c2cc(F)ccc2O1 [REPOTRECTINIB]
IC50 [12]: 3.3 nM | IC50 [13]: 0.4 nM

Next, values leading:

IC50 (cells): 2130 nM
Structure (SMILES): C=CC(=O)Nc1cccc(Oc2nc(Nc3ccc(N4CCN(C)CC4)cc3OC)ncc2Cl)c1

DC50 [1]: 14.6 nM | DC50 [2]: 14.9 nM
Structure (SMILES): Nc1ncnc2c1c(-c1ccc(Oc3ccccc3)cc1)nn2[C@@H]1CCCN(CCOCCOCC(=O)Nc2ccc3c(c2)CN(C2CCC(=O)NC2=O)C3=O)C1 (some centres undefined)

IC50 [3]: 5.1 nM
Structure (SMILES): Cc1c(NC(=O)c2ccc(C(C)(C)C)cc2)cccc1-c1cn(C)c(=O)c(Nc2ccc(C(=O)N3CCN(CCCCCCNC(=O)CNc4cccc5c4C(=O)N(C4CCC(=O)NC4=O)C5=O)CC3)cc2)n1 (centres undefined)

DC50 [4]: 18 nM | DC50 [5]: 18 nM | DC50 [6]: 18 nM | DC50 [7]: 18 nM | DC50 [8]: 18 nM | DC50 [9]: 18 nM
Structure (SMILES): Nc1ncnc2c1c(-c1ccc(Oc3ccccc3)cc1)nn2[C@@H]1CCCN(C(=O)c2cn(CCOCCOCCOCCCc3ccc4c(c3)CN(C3CCC(=O)NC3=O)C4=O)nn2)C1 (some centres undefined)

IC50 [14]: 2.9 nM
Structure (SMILES): NC(=O)[C@H]1CCN(c2ncnc(N)c2F)C[C@@H]1N1CCC[C@@H](Nc2cc(Cl)cc(C(F)(F)F)c2)C1=O [VECABRUTINIB]
